PMC4122979, “The N-terminal portion of autoinhibitory element modulates human endothelial nitric-oxide synthase activity through coordinated controls of phosphorylation at Thr^495 and Ser^1177” (Bioscience Reports, 2014)

Legend:
eNOS [1] = test: Inhibition of eNOS oxygenase activity (L-[^3H]citrulline formation) by CBD peptides; format: biochemical, human; conditions: 10 μM peptide; for inhibition of L-citrulline formation: relative to rate without peptide, mean of triplicate experiments; for order of inhibitory potency to eNOS activity: inter-domain electron transfer (citrulline formation): same order stated for CaM binding affinity
Description: (§1) The expression and purification of eNOS from Sf21 cells was carried out essentially same as previously reported. The inhibition of eNOS oxygenase activity by unmodified or modified CBDs was tested at 37°C for 4 min by measuring L-[^3H]citrulline formation in a mixture containing 25 mM Tris, pH 7.5, 100 mM NaCl, 0.5 μM CaM, 0.2 mM EDTA, 0.3 mM CaCl2, 100 μM β-NADPH, 10 μM H4B, 20 μM L-arginine, 1 μCi of L-[^3H]arginine, 100 nM eNOS, and in the presence or absence of 10 μM of each peptide. Cytochrome c reduction was determined at room temperature (25°C) in a reaction mixture containing 25 mM Tris–HCl, pH 7.5, 100 mM NaCl, 10% glycerol, 50 μM cytochrome c, 0.5 μM CaM, 100 μM CaCl2 and 100 μM β-NADPH in the presence or absence of 10 μM of each peptide. The reaction was initiated by addition of 50 nM eNOS and monitored at 550 nm in a GE geneQuant100 spectrophotometer. Activity was determined using a ΔE550=21 mM^−1cm^−1. An assay in the absence of CaM was carried out to serve as baseline reference.
(§2) Figure 6 Evaluation of inhibitory potency of CBD variants on eNOS activity Modified or unmodified CBD peptides were assessed for their ability to inhibit (A) citrulline formation activity and (B) Cytochrome c reduction. CR denotes a complete reaction mixture; CR-CaM denotes omission of CaM from the complete reaction mixture; CR+T495 indicates the addition of 10 μM of unmodified CBD (T495) to the complete reaction mixture; CR+A495 denotes the addition of 10 μM of phosphonull CBD (A495) to the complete reaction mixture; CR+D495 indicates the addition of 10 μM of phosphomimetic CBD (D495) to the complete reaction mixture; CR+pT495 denotes the addition of 10 μM of phosphorylated CBD (pT495) to the complete reaction mixture. The complete reaction mixture for L-[^3H]citrulline formation contains 25 mM Tris, pH 7.5, 100 mM NaCl, 0.5 μM CaM, 0.2 mM EDTA, 0.3 mM CaCl2, 100 μM β-NADPH, 10 μM H4B, 20 μM L-arginine, 1 μCi of L-[^3H]arginine, 100 nM eNOS. The complete reaction mixture for cytochrome c reduction contains 25 mM Tris–HCl, pH 7.5, 100 mM NaCl, 10% glycerol, 50 μM cytochrome c, 0.5 μM CaM, 100 μM CaCl2 and 100 μM β-NADPH. The catalytic activity was normalized to give percentages relative to the reaction rate in the absence of each peptide. Each bar represents mean±S.D. of triplicate experiments. Under these conditions, the activities for eNOS bound to CaM were 12±2/min for citrulline formation, and 295±15/min for cytochrome c reduction. Data are presented as means±S.D.*denotes P<0.05, ** P<0.01, NS, not significant difference as compared with that in the absence of synthetic CBD peptides. Each experiment was performed in triplicate and repeated three times.

eNOS [2] = test: Inhibition of eNOS reductase activity (cytochrome c reduction) by CBD peptides; format: biochemical, human; conditions: 10 μM peptide; for inhibition of cytochrome c reductase activity / effect on cytochrome c reduction (electron transfer within reductase domain), in words: 50 nM eNOS, 0.5 μM CaM, 100 μM CaCl2, 50 μM cytochrome c, 100 μM β-NADPH, pH 7.5, 25°C, 550 nm; for inhibition of cytochrome c reductase activity: relative to rate without peptide, mean of triplicate experiments; for order of inhibitory potency to eNOS activity: intra-domain electron transfer (cytochrome c reduction): same order stated for CaM binding affinity
Description: as §1, §2

human CaM = test: CaM mobility shift gel (CBD peptide binding to CaM); conditions: 200 pmol CaM; for order of binding affinity for CBD variants to CaM: densitometric analysis of attenuation of free CaM bands (I/I0 versus peptide:CaM ratio), 100 μM CaCl2, pH 7.5, triplicate gels (n=4 in Figure 5 legend); for CaM-peptide complex formation: non-denaturing, non-reducing PAGE (18% gel), peptide 0–2000 pmol, 1 h, 20 mM Tris, pH 7.5, 100 μM CaCl2, Coomassie staining
Description: Human CaM was purified essentially as described previously. CaM (200 pmol) was incubated with each peptide at several molar ratios for 1 h in 10 μl of buffer containing 20 mM Tris, pH 7.5 with 100 μM CaCl2. The sample was subjected to non-denaturing, non-reducing PAGE (18% gel) at 30 mA under high Ca^2+ conditions (100 μM free Ca^2+ in all gel buffers). Binding of peptides to CaM was visualized by Coomassie Brilliant Blue R-250 staining. The relative amount of CaM on the gel at each peptide concentration (I) was determined by densitometry and normalized to CaM in the absence of peptide (I0). The data are plotted as the mean I/I0±S.D. (n=4) versus peptide:CaM ratio.
What needs to be explained is why a similar activation of eNOS is observed with little effect on phosphorylation of Thr^495 in mutant Δ605. Thus, it is difficult at this stage to conclude the precise roles of Thr^495 dephosphorylation in the activation of eNOS. Conflicting conclusions have also been drawn from earlier observations in the role of Thr^495 phosphorylation with eNOS activation. It has been reported that eNOS activity is increased by phosphorylation of Ser^1177 despite enhanced Thr^495 phosphorylation. […] To resolve this discrepancy, we synthesized peptides representing heNOS CBD (residues 491–510) with point mutations at Thr^495 site (Figure 5A) and determined the apparent affinity of the CBD variants to CaM. Each peptide with increasing concentrations (0–2000 pmol) was incubated with purified CaM at a fixed concentration (200 pmol) in the presence of 100 μM CaCl2. The mixtures were electrophoresed on non-reducing, non-denaturing gels. […] Peptide–CaM complexes migrate as higher molecular weight bands than free CaM in the presence of calcium. […] The extent of CaM-peptide interaction was assessed by densitometric analysis of attenuation of free CaM bands in the presence of increasing concentrations of each peptide.
Figure 5 Interaction of synthetic CBD peptides with calcium/CaM (A) Peptide CBD sequences (residues 491–510, based on heNOS) with unmodified T495 (T495), phosphonull A substitution (A495, red colour), phosphomimetic substitution (D495, blue colour) and phosphorylated T495 (pT495, brown colour) are indicated. (B) The synthetic CBD variants were incubated with CaM (200 pmol) by increasing peptide:CaM molar ratios in the presence of 100 μM CaCl2 before electrophoresis. The samples were analysed on 18% non-denaturing gels and visualized with Coomassie Brilliant Blue R-250. Representative Coomassie Brilliant Blue-stained gels of samples containing CaM and increasing molar ratios of T495, A495, D495 and pT495 are shown. The first lane in each gel contains CaM only, i.e., CBD/CaM ratio is 0. The rest CBD/CaM ratios were 0.1:1 (2nd lane), 0.2:1 (3rd lane), 0.4:1 (4th lane), 0.8:1 (5th lane), 1.6:1 (6th lane), 3.2:1 (7th lane), 6.4:1 (8th lane) and 12.8:1 (9th lane). CBD–CaM complexes and free CaM are denoted. (C) The relative amount of CaM on the gel at each peptide concentration (I) was determined by densitometry and normalized to CaM in the absence of peptide (I0). The data are plotted as the mean I/I0±S.D. (n=4) versus peptide:CaM ratio.

[3] = 100 nM eNOS, 0.5 μM CaM, 0.3 mM CaCl2, 20 μM L-arginine, pH 7.5, 37°C, 4 min

Row | inhibition of L-citrulline formation (eNOS [1]; [3]) [%] | order of inhibitory potency to eNOS activity: inter-domain electron transfer (citrulline formation) (eNOS [1]) | inhibition of cytochrome c reductase activity (eNOS [2]) [%] | order of inhibitory potency to eNOS activity: intra-domain electron transfer (cytochrome c reduction) (eNOS [2]) | order of binding affinity for CBD variants to CaM (human CaM) | CaM-peptide complex formation (human CaM) | Substance | effect on cytochrome c reduction (electron transfer within reductase domain), in words (eNOS [2]) | effect on eNOS oxygenase activity (citrulline formation), in words (eNOS [1]; [3])
1 | 70 | T495>A495>D495>pT495 | 90 | T495>A495>D495>pT495 | T495>A495>D495>pT495 | also showed CaM-peptide binding | TRKKA^495FKEVANAVKISASLM [A495, phospho-null CBD peptide, heNOS residues 491–510] | – | –
2 | 20 | T495>A495>D495>pT495 | 75 | T495>A495>D495>pT495 | T495>A495>D495>pT495 | also showed CaM-peptide binding | TRKKD^495FKEVANAVKISASLM [D495, phosphomimetic CBD peptide, heNOS residues 491–510] | – | –
3 | – | T495>A495>D495>pT495 | – | T495>A495>D495>pT495 | T495>A495>D495>pT495 | nearly no detectable peptide-CaM complex | TRKKpT^495FKEVANAVKISASLM [pT495, phosphorylated CBD peptide, heNOS residues 491–510] | virtually no inhibition on electron transfer within reductase domain | did not interfere with eNOS oxygenase activity

Row | Substance | inhibition of L-citrulline formation (eNOS [1]; [3]) [%] | order of inhibitory potency to eNOS activity: inter-domain electron transfer (citrulline formation) (eNOS [1]) | inhibition of cytochrome c reductase activity (eNOS [2]) [%] | order of inhibitory potency to eNOS activity: intra-domain electron transfer (cytochrome c reduction) (eNOS [2]) | order of binding affinity for CBD variants to CaM (human CaM) | CaM-peptide complex formation (human CaM) | effect on cytochrome c reduction (electron transfer within reductase domain), in words (eNOS [2]) | effect on eNOS oxygenase activity (citrulline formation), in words (eNOS [1]; [3])
4 | TRKKT^495FKEVANAVKISASLM [T495, Unmodified CBD peptide, heNOS residues 491–510] | 87 | T495>A495>D495>pT495 | – | T495>A495>D495>pT495 | T495>A495>D495>pT495 | exhibited increases in CaM–peptide complex bands and reciprocal attenuation of free CaM bands | inhibits the activity completely | –
